Source: publication PMC11571215, “Optimization of Antiproliferative Properties of Triimine Copper(II) Complexes” (Journal of Medicinal Chemistry, 2024)

Columns and labels:
[1] = system: normal human primary dermal fibroblasts; experiment: MTS cell viability assay, normal fibroblasts; format: cell-based; conditions: 48 h of exposure
Experimental: The antiproliferative effect of the Cu(II) complexes in tumor and healthy cell lines was assessed through the MTS assay, a colorimetric method that is widely used to evaluate cellular viability, specifically mitochondrial viability.[53],[54] Cellular viability was determined after 48 h exposure to a concentration range (0.1–50 μM) of Cu(II) complexes in three tumor cell lines. […] Additionally, the viability of healthy primary dermal fibroblasts was performed as a comparison of the complexes’ antiproliferative effects in normal cells.
Cellular viability assays were performed using HCT116, HCT116-DoxR, and A2780 cancer cell lines as well as normal human primary fibroblasts. Cells were seeded at a density of 0.75 × 10^5 cells/mL in 96-well plates and incubated at 37 °C with 5% (v/v) CO2 for 24 h. After this incubation period, the copper complexes were accurately weighed and immediately dissolved in 100% (v/v) dimethyl sulfoxide (DMSO). Subsequently, the complexes were diluted to the final concentration using a cell culture medium. The culture medium in each well was replaced with fresh medium containing varying concentrations of the complexes (ranging from 0.01 to 50 μM). Negative controls contained culture medium with 0.1% (v/v) DMSO, and positive controls contained 0.4 μM Dox.
After an additional 48 h of incubation under the same conditions, cellular viability was assessed using the CellTiter 96 Aqueous One Solution Cell Proliferation Assay kit (Promega, Madison, USA). […] The absorbance of formazan, measured at 490 nm in a microplate reader (Tecan Infinite M200, Tecan, Männedorf, Switzerland), is directly proportional to the number of viable cells.[104]
The cell viability versus concentration graphics were analyzed using Prism 8 software (GraphPad) to determine the half-maximal inhibitory concentration (IC50) of each complex for the respective cell line. Additionally, the selective index (SI) for each complex was calculated by dividing the IC50 of human fibroblasts by the IC50 values of the tested cancer cell lines.

calf-thymus DNA (ctDNA) = experiment: Ethidium bromide displacement assay; format: binding; conditions: for Ksv (Stern-Volmer constant): ctDNA-EB adduct in PBS buffer, EB 50 μM
Source text: Compounds that intercalate between DNA base pairs equally or more strongly than EB replace it from the adduct ctDNA-EB, which results in a noticeable decrease or quenching of the fluorescence emission. […] For both Cu1a and Cu1b, the decrease in the fluorescence intensity of ctDNA-EB with increasing complex concentrations fulfills the linear Stern–Volmer equation (eq 3)[90]: [drawing 6] 3
The apparent binding constants (Kapp) are estimated using eq 4: [drawing 7] 4 (where KEB = 1.0 × 10^7 M^–1, [EB] is the EB concentration (50 μM), [Q50] is the complex concentration at 50% reduction of EB fluorescence intensity, estimated based on the linear Stern–Volmer plot for I^0/I = 2). Kapp is equal to 1.75 × 10^5 M^–1 for Cu1a and 2.35 × 10^6 M^–1 for Cu1b. […] Nevertheless, both Cu(II) complexes show rather moderate ability to replace EB from the adduct with ctDNA.[21]
Ethidium bromide (EB) and calf-thymus DNA (ctDNA) were purchased from Sigma-Aldrich and Thermo Fisher Scientific, respectively. Prior to experiments, a solution containing 10 mg/mL of ctDNA in DNase-free and RNase-free distilled, deionized water was spectroscopically monitored at 260 nm and at 280 nm to determine the concentration and check the purity.
The ethidium bromide (EB) fluorescence displacement assay was carried out using a Hitachi F-7000 spectrofluorometer. An equimolar amount (50 μM) of EB solution was added to ctDNA solution at room temperature, followed by 2 h incubation in the dark. The compound was then titrated into the EB–ctDNA mixture, well mixed, and allowed to stand for 30 min. The concentrations of the complexes varied from 0 to 40 μM.

[2] = Stability/solubility in RPMI culture medium by UV-vis; format: physicochemical; conditions: 50 μM, without phenol red and FBS, 0 to 3 h, 37 °C
Experimental: The complexes (powder form) were first dissolved in 100% (v/v) DMSO and subsequently in RPMI culture medium without phenol red and fetal bovine serum (FBS), at a final concentration of 50 μM. Absorption spectra were recorded in the wavelength range of 220–800 nm. As previously, high-energy absorption bands corresponding to π → π* and n → π* transitions with peaks between 230 and 380 nm ranges were observed, which may correspond to the aromatic rings of terpyridine.[24],[38]
Copper complex stability in a biological medium was analyzed through UV–vis spectroscopy spanning a range from 220 to 800 nm. Complexes were dissolved in 100% (v/v) DMSO and subsequently diluted with RPMI medium (without phenol red) to achieve a final concentration of 50 μM. The measurements were conducted in a quartz cuvette with a 1 cm path length. Spectral analyses were obtained after 0, 3, 6, 24, and 48 h on the Evolution 300 UV–vis spectrophotometer (Thermo Fisher Scientific in Waltham, MA, USA).

[3] = molecular target: T1, bovine serum albumin (BSA) (Bos taurus, UniProt P02769); experiment: Interaction with bovine serum albumin (UV-vis, fluorescence); format: binding; conditions: 24 h, 37 °C; for BSA UV-Visible absorbance change: BSA 20 µM, complexes 10, 25 and 50 µM; for BSA fluorescence quenching: BSA 20 μM, complexes 10-100 µM, excitation 278 nm
T1 construct: composed of single polypeptide chains with 583 amino
Experimental: All solutions used to perform the BSA interaction assays were diluted in filtered buffer (10 mM phosphate buffer and 150 mM NaCl) pH 7.0, with BSA at a fixed final concentration of 20 μM and the concentrations of the complexes varying from 10 to 100 μM. Control solutions were also prepared, namely, a solution containing only BSA, a solution consisting of BSA + DMSO, and a solution consisting of DMSO only. Solutions were analyzed after 24 h of incubation at 37 °C. UV–visible absorption spectra were acquired using the Evolution 300 UV–vis (Thermo Fisher Scientific, Waltham, MA, USA) in the wavelength range between 245 and 500 nm in quartz cuvettes. The fluorescence of the samples mentioned was analyzed using a Cary Eclipse fluorimeter (VARIAN, California, USA). The BSA molecule was excited at 278 nm (maximum absorption peak), and emission was recorded between 290 and 500 nm. The setup was set at a slow speed (120 nm/min) using 5 nm slits. The absorbance value of the buffer containing DMSO (at the respective percentages) was subtracted from that of each sample.
12. Interaction with Bovine Serum Albumin (BSA)
In the perspective of translating the complexes into clinical practice and considering their administration and distribution in the human body, it is essential to examine their potential interaction with albumin, a protein present in human plasma at high concentrations. In this regard, bovine serum albumin (BSA) was utilized as a model. BSA is the most abundant plasma protein in vertebrates, sharing approximately 76% similarity with human serum albumin (HSA) and composed of single polypeptide chains with 583 amino […]
UV-Visible spectroscopy is an effective method for predicting conformational changes in proteins when interacting with small molecules such as drugs. The interaction of BSA […]
spectroscopy, considering the intrinsic fluorescence of tryptophan residues in BSA. Figure […]
DMSO and BSA in the presence of increasing concentrations of the metallic complexes.
(1 picture or pasted object on this page, not shown here)

T1 sequence (P02769 25-607): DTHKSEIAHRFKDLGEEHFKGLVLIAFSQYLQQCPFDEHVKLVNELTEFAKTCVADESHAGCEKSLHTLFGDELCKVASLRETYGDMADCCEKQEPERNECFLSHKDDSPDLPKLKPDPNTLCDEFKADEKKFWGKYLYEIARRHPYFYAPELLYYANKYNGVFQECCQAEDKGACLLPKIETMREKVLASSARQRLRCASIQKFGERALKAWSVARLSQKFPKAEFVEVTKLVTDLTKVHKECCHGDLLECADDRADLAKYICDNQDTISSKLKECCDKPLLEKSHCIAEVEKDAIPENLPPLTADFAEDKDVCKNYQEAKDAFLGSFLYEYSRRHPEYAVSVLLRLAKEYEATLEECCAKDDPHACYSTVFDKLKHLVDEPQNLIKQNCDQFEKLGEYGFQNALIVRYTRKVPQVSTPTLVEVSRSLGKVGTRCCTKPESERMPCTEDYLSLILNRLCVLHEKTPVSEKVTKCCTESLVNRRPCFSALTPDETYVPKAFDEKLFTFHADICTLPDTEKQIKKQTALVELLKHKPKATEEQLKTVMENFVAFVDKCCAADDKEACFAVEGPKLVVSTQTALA

[Cl][Cu-3]12([Cl])[n+]3ccccc3-c3cc(-c4cccc5ccccc45)cc([n+]31)-c1cccc[n+]12 [Cu1a]
IC50 [1]: 9.26 ± 0.9 µM | Ksv (Stern-Volmer constant) (calf-thymus DNA (ctDNA)): 3.8 × 10^3 M^–1 | solubility/stability in RPMI culture medium [2]: maintenance of solubility | BSA UV-Visible absorbance change [3]: hypochromism | BSA fluorescence quenching [3]: attenuation of BSA fluorescence was observed

[Cl][Cu-3]12([Cl])[n+]3ccccc3-c3cc(-c4ccc5ccccc5c4)cc([n+]31)-c1cccc[n+]12 [Cu1b]
IC50 [1]: 13.3 ± 1 µM | Ksv (Stern-Volmer constant) (calf-thymus DNA (ctDNA)): 4.7 × 10^3 M^–1 | apparent binding constant Kapp (calf-thymus DNA (ctDNA); eq 4, KEB = 1.0 × 10^7 M^–1, [EB] 50 μM): 2.35 × 10^6 M^–1 | solubility/stability in RPMI culture medium [2]: a slight reduction of its solubility from 0 to 3 h | BSA UV-Visible absorbance change [3]: hypochromism | BSA fluorescence quenching [3]: an increased quenching effect was observed
